Experimental data: US20170000749A1, “Methods for Treating Cognitive Disorders Using Inhibitors of Histone Deacetylase” (Forum Pharmaceuticals, Inc., priority 2008, published 2017)
Where two headings read alike, the source gives them in different places. Values belong to the molecule of their own block, whether it stands above or below them.

How the values were obtained:
[1] = molecular target: one or more of HDAC-1, HDAC-2, HDAC-3, HDAC-4, HDAC-5, HDAC-6, HDAC-7, HDAC-8, HDAC-9, HDAC-10 and HDAC-11; assay: Inhibition of Histone Deacetylase Enzymatic Activity (Boc-Lys(Ac)-AMC substrate, Fluor-de-Lys developer); assay type: biochemical; details: read-out: HDAC Inhibition (IC50 μM) HDAC Enzyme
Experimental: The following protocol is used to assay the compounds of the disclosure.
The mixture is pre-incubated for 5 minutes at room temperature. The reaction is started by bringing the temperature to 37° C. and adding 16 μl substrate. Total reaction volume is 50 μl.
In the Tables 8, 9 and 10, A≦0.05 μM; 0.05 μM<B≦0.1 μM; 0.1 μM<C≦1 μM; and 1 μM<D≦10 μM.

[2] = tested on: HDAC activity in primary mouse cortical cultures; assay: Whole-Cell Histone Deacetylase (HDAC) Inhibition Assay in Primary Mouse Cortical Cultures; assay type: cell-based
Summary of the method: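 Primary neocortical neurons from E17 Balb/C mouse embryos were plated at 50000 cells/well and treated at DIV9 with ten-point DMSO dilutions for 16-18 h at 37° C, in triplicate. BOC-Lys(Ac)-AMC substrate was then added for 1 h. Fluor de Lys developer containing 1 uM TSA produced a fluorophore, which was read.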

[3] = whole-cell (WC), mouse cortical neurons, Table 9, read-out: HDAC Inhibition (IC50 μM) WC mouse cortical neurons
[4] = read-out: HDAC Inhibition (IC50 μM) WC mouse cortical neurons, Table 10
[5] = whole-cell (WC), mouse cortical neurons, Table 10, read-out: HDAC Inhibition (IC50 μM) WC mouse cortical neurons
[6] = whole-cell (WC), mouse cortical neurons, Table 8, read-out: HDAC Inhibition (IC50 μM) WC mouse cortical neurons

SMILES: O=C(NO)c1cnc(N2C[C@@H]3C[C@H]2CN3c2cccc(S(F)(F)(F)(F)F)c2)nc1
IC50 ([1]; Table 9): < 0.05 µM
IC50 [2, 3]: 1 to 5 µM

SMILES: CN1C(=O)CN=C(c2ccccc2)c2ccc(CCC(=O)NO)cc21 [(Z)-N-hydroxy-3-(1-methyl-2-oxo-5-phenyl-2,3-dihydro-1H-benzo[e][1,4]diazepin-8-yl)propanamide]
IC50 ([1]; Table 10): 0.1 to 1 µM
IC50 [2, 4]: 5 to 15 µM

SMILES: O=C(NO)c1cnc(N2C[C@@H]3C[C@H]2CN3c2ccccc2)nc1 [N-hydroxy-2-((1S,4S)-5-phenyl-2,5-diazabicyclo[2.2.1]heptan-2-yl)pyrimidine-5-carboxamide]
IC50 ([1]; Table 9): 0.05 to 0.1 µM
IC50 [2, 3]: < 1 µM

SMILES: O=C(CCCCCN1C(=O)c2ccccc2N(C2CC2)c2ccccc21)NO [6-(5-cyclopropyl-11-oxo-5H-dibenzo[b,e][1,4]diazepin-10(11H)-yl)-N-hydroxyhexanamide]
IC50 ([1]; Table 10): 0.1 to 1 µM
IC50 [2, 5]: 1 to 5 µM

SMILES: O=C(NO)c1cnc(N2C[C@@H]3C[C@H]2CN3C(=O)N2CCCC2)nc1 [N-hydroxy-2-((1S,4S)-5-(pyrrolidine-1-carbonyl)-2,5-diazabicyclo[2.2.1]heptan-2-yl)pyrimidine-5-carboxamide]
IC50 ([1]; Table 9): 0.05 to 0.1 µM
IC50 [2, 3]: < 1 µM

SMILES: O=C(NO)c1cnc(N2C[C@@H]3C[C@H]2CN3C(=O)c2cccc(C(F)(F)F)c2)nc1 [N-hydroxy-2-((1S,4S)-5-(3-(trifluoromethyl)benzoyl)-2,5-diazabicyclo[2.2.1]heptan-2-yl)pyrimidine-5-carboxamide]
IC50 ([1]; Table 9): 0.05 to 0.1 µM
IC50 [2, 3]: 1 to 5 µM

SMILES: O=C(NO)c1cnc(N2C[C@@H]3C[C@H]2CN3c2ccc3nsnc3c2)nc1 [2-((1S,4S)-5-(benzo[c][1,2,5]thiadiazol-5-yl)-2,5-diazabicyclo[2.2.1]heptan-2-yl)-N-hydroxypyrimidine-5-carboxamide]
IC50 ([1]; Table 9): < 0.05 µM
IC50 [2, 3]: < 1 µM

SMILES: O=C(NO)c1cnc(N2C[C@@H]3C[C@H]2CN3c2cc(C(F)(F)F)nc3ccccc23)nc1 [N-hydroxy-2-((1S,4S)-5-(2-(trifluoromethyl)quinolin-4-yl)-2,5-diazabicyclo[2.2.1]heptan-2-yl)pyrimidine-5-carboxamide]
IC50 ([1]; Table 9): < 0.05 µM
IC50 [2, 3]: < 1 µM

SMILES: O=C(NO)c1cnc(N2CCCN(C(=O)OCc3ccccc3)CC2)nc1 [benzyl 4-(5-(hydroxycarbamoyl)pyrimidin-2-yl)-1,4-diazepane-1-carboxylate]
IC50 ([1]; Table 10): 0.05 to 0.1 µM
IC50 [2, 5]: 1 to 5 µM

SMILES: O=C(/C=C/c1ccc(CN2C(=O)CN=C(c3ccccc3)c3ccccc32)cc1)NO [(E)-N-hydroxy-3-(4-(((Z)-2-oxo-5-phenyl-2,3-dihydro-1H-benzo[e][1,4]diazepin-1-yl)methyl)phenyl)acrylamide]
IC50 ([1]; Table 10): 0.05 to 0.1 µM
IC50 [2, 4]: 1 to 5 µM

SMILES: O=C(CCCCCCn1c(=O)c2ccccc2c2ccccc21)NO [N-hydroxy-7-(6-oxophenanthridin-5(6H)-yl)heptanamide]
IC50 ([1]; Table 10): < 0.05 µM
IC50 [2, 5]: < 1 µM

SMILES: CN(C)Cc1cccc(N2C[C@@H]3C[C@H]2CN3c2ncc(C(=O)NO)cn2)c1 [2-((1S,4S)-5-(3-((dimethylamino)methyl)phenyl)-2,5-diazabicyclo[2.2.1]heptan-2-yl)-N-hydroxypyrimidine-5-carboxamide]
IC50 ([1]; Table 9): < 0.05 µM
IC50 [2, 3]: < 1 µM

SMILES: O=C(NO)c1cnc(N2C[C@@H]3C[C@H]2CN3c2ccc(F)cc2)nc1 [2-((1S,4S)-5-(4-fluorophenyl)-2,5-diazabicyclo[2.2.1]heptan-2-yl)-N-hydroxypyrimidine-5-carboxamide]
IC50 ([1]; Table 9): 0.05 to 0.1 µM
IC50 [2, 3]: < 1 µM

SMILES: O=C(NO)c1ccc(OCCN2C(=O)c3cc(F)ccc3Oc3ccccc32)cc1
IC50 ([1]; Table 10): < 0.05 µM
IC50 [2, 5]: < 1 µM

SMILES: O=C(NO)c1cnc(N2CCn3c(nnc3C(F)(F)F)C2)nc1 [N-hydroxy-2-(3-(trifluoromethyl)-5,6-dihydro-[1,2,4]triazolo[4,3-a]pyrazin-7(8H)-yl)pyrimidine-5-carboxamide]
IC50 ([1]; Table 10): 0.05 to 0.1 µM
IC50 [2, 5]: 1 to 5 µM

SMILES: O=C(NO)c1cnc(N2C[C@@H]3C[C@H]2CN3c2ccc3c(c2)OC(F)(F)O3)nc1 [2-((1S,4S)-5-(2,2-difluorobenzo[d][1,3]dioxol-5-yl)-2,5-diazabicyclo[2.2.1]heptan-2-yl)-N-hydroxypyrimidine-5-carboxamide]
IC50 ([1]; Table 9): < 0.05 µM
IC50 [2, 3]: 1 to 5 µM

SMILES: CC(C)OC(=O)N1C[C@@H]2C[C@H]1CN2c1ncc(C(=O)NO)cn1 [(1S,4S)-isopropyl 5-(5-(hydroxycarbamoyl)pyrimidin-2-yl)-2,5-diazabicyclo[2.2.1]heptane-2-carboxylate]
IC50 ([1]; Table 9): < 0.05 µM
IC50 [2, 3]: < 1 µM

SMILES: O=C(NO)c1cnc(N2C[C@@H]3C[C@H]2CN3c2noc3ccccc23)nc1 [2-((1S,4S)-5-(benzo[d]isoxazol-3-yl)-2,5-diazabicyclo[2.2.1]heptan-2-yl)-N-hydroxypyrimidine-5-carboxamide]
IC50 ([1]; Table 9): < 0.05 µM
IC50 [2, 3]: < 1 µM

SMILES: O=C(CCCCCCN1C(=O)c2ccccc2N(C2CC2)c2ccccc21)NO [7-(5-cyclopropyl-11-oxo-5H-dibenzo[b,e][1,4]diazepin-10(11H)-yl)-N-hydroxyheptanamide]
IC50 ([1]; Table 10): 0.1 to 1 µM
IC50 [2, 5]: 1 to 5 µM

SMILES: O=C(NO)c1cnc(N2CCN(C3c4ccccc4CCc4ccccc43)CC2)nc1
IC50 ([1]; Table 10): 0.1 to 1 µM
IC50 [2, 5]: 5 to 15 µM

SMILES: O=C(CCCCCC(=O)N1c2ccccc2C=Cc2ccccc21)NO [(Z)-7-(5H-dibenzo[b,f]azepin-5-yl)-N-hydroxy-7-oxoheptanamide]
IC50 ([1]; Table 10): < 0.05 µM
IC50 [2, 5]: < 1 µM

Further lines, results first:

IC50 ([1]; Table 10): < 0.05 µM
IC50 [2, 5]: < 1 µM
SMILES: O=C(NO)c1cnc(NC2c3ccccc3C=C(F)c3ccccc32)nc1 (centres unmarked)

IC50 ([1]; Table 8): < 0.05 µM
IC50 [2, 6]: > 15 µM
SMILES: O=C(NO)c1ccc(C2=Nc3ccccc3Oc3c2cccc3C(F)(F)F)cc1 [(Z)—N-hydroxy-4-(4-(trifluoromethyl)dibenzo[b,f][1,4]oxazepin-11-yl)benzamide]

IC50 ([1]; Table 8): < 0.05 µM
IC50 [2, 6]: < 1 µM
SMILES: O=C(NO)c1ccc(C2=Nc3ccccc3N(C3CC3)c3ncccc32)cc1 [(Z)-4-(11-cyclopropyl-11H-benzo[b]pyrido[2,3-e][1,4]diazepin-5-yl)-N-hydroxybenzamide]

IC50 ([1]; Table 8): < 0.05 µM
IC50 [2, 6]: 1 to 5 µM
SMILES: O=C(NO)c1ccc(C2=Nc3ccccc3Oc3ccccc32)s1 [(E)-5-(dibenzo[b,f][1,4]oxazepin-11-yl)-N-hydroxythiophene-2-carboxamide]

IC50 ([1]; Table 10): < 0.05 µM
IC50 [2, 5]: 1 to 5 µM
SMILES: O=C(CCCCCN1c2ccccc2C=Cc2ccccc21)NO [(Z)-6-(5H-dibenzo[b,f]azepin-5-yl)-N-hydroxyhexanamide]

IC50 ([1]; Table 8): 0.1 to 1 µM
IC50 [2, 6]: 5 to 15 µM
SMILES: O=C(NO)c1ccc(C2=Nc3cc(C(F)(F)F)ccc3Oc3ccccc32)cc1 [(Z)—N-hydroxy-4-(8-(trifluoromethyl)dibenzo[b,f][1,4]oxazepin-11-yl)benzamide]

IC50 ([1]; Table 8): < 0.05 µM
IC50 [2, 6]: 5 to 15 µM
SMILES: O=C(NO)c1ccc(C2=Nc3ccccc3Oc3cccc(F)c32)cc1 [(Z)-4-(1-fluorodibenzo[b,f][1,4]oxazepin-11-yl)-N-hydroxybenzamide]

IC50 ([1]; Table 8): 0.1 to 1 µM
IC50 [2, 6]: 5 to 15 µM
SMILES: O=C(NO)c1ccc(C2=Nc3ccccc3Oc3ccccc32)cc1F [(Z)-4-(dibenzo[b,f][1,4]oxazepin-11-yl)-2-fluoro-N-hydroxybenzamide]

IC50 ([1]; Table 10): < 0.05 µM
IC50 [2, 5]: < 1 µM
SMILES: O=C(NO)c1ccc(NC2c3ccccc3CCc3ccccc32)nc1

IC50 ([1]; Table 10): 1 to 10 µM
IC50 [2, 5]: 5 to 15 µM
SMILES: O=C(NO)c1cnc(ON=C(c2ccccc2)c2ccccc2)nc1 [2-(diphenylmethyleneaminooxy)-N-hydroxypyrimidine-5-carboxamide]

IC50 ([1]; Table 10): < 0.05 µM
IC50 [2, 5]: 5 to 15 µM
SMILES: O=C(CCCCCCOc1nc2ccccc2c2ccccc12)NO [N-hydroxy-7-(phenanthridin-6-yloxy)heptanamide]

IC50 ([1]; Table 8): 0.1 to 1 µM
IC50 [2, 6]: 5 to 15 µM
SMILES: COc1ccc2c(c1)C(c1ccc(C(=O)NO)cc1)=Nc1ccccc1O2 [(Z)—N-hydroxy-4-(2-methoxydibenzo[b,f][1,4]oxazepin-11-yl)benzamide]

IC50 ([1]; Table 8): 1 to 10 µM
IC50 [2, 6]: 5 to 15 µM
SMILES: O=C(NO)c1ccc(C2=Nc3ccccc3S(=O)(=O)c3ccccc32)cc1

IC50 ([1]; Table 8): 0.05 to 0.1 µM
IC50 [2, 6]: < 1 µM
SMILES: O=C(NO)c1ccc(C2=Nc3ccccc3Oc3c(O)cccc32)cc1 [(Z)—N-hydroxy-4-(4-hydroxydibenzo[b,f][1,4]oxazepin-11-yl)benzamide]

IC50 ([1]; Table 8): 0.05 to 0.1 µM
IC50 [2, 6]: 1 to 5 µM
SMILES: Cc1cccc2c1Oc1ccccc1N=C2c1ccc(C(=O)NO)cc1 [(Z)—N-hydroxy-4-(4-methyldibenzo[b,f][1,4]oxazepin-11-yl)benzamide]

IC50 ([1]; Table 8): 1 to 10 µM
IC50 [2, 6]: > 15 µM
SMILES: O=C(NO)c1ccc(C2=Nc3ccccc3Oc3ccccc32)o1 [(E)-5-(dibenzo[b,f][1,4]oxazepin-11-yl)-N-hydroxyfuran-2-carboxamide]

IC50 ([1]; Table 8): 0.1 to 1 µM
IC50 [2, 6]: 1 to 5 µM
SMILES: O=C(NO)c1ccc(C2=Nc3ccccc3[S+]([O-])c3ccccc32)cc1 (centres unmarked)

IC50 ([1]; Table 10): < 0.05 µM
IC50 [2, 5]: 1 to 5 µM
SMILES: O=C(/C=C/c1ccc(CN2C(=O)c3ccccc3Oc3ccccc32)cc1)NO

IC50 ([1]; Table 8): 0.1 to 1 µM
IC50 [2, 6]: 1 to 5 µM
SMILES: O=C(NO)c1ccc(C2=Nc3ccccc3N(CCCN3CCOCC3)c3ncccc32)cc1 [(Z)-N-hydroxy-4-(11-(3-morpholinopropyl)-11H-benzo[b]pyrido[2,3-e][1,4]diazepin-5-yl)benzamide]
